Assay results reported in US11358930B2, “Selective potassium channel agonists” (University of Pittsburgh—Of the Commonwealth System of …, priority 2018, dated 2022).
Entries after “also recorded” stand apart in the source; their conditions may differ.

Tests used:
[1] = target: T1, Kv7.2/Kv7.3 (Homo sapiens, UniProt O43525+O43526); assay: Automated electrophysiology IonWorks Barracuda (IWB) agonist assay in HEK293 cells, Kv7.2/Kv7.3; assay type: cell-based; details: for selectivity index SI = EC2x(Kv7.4/Kv7.5)/EC2x(Kv7.2/Kv7.3): higher SI = better selectivity for Kv7.2/Kv7.3; for EC2x at Kv7.2/Kv7.3 (agonist concentration that doubles the conductance at the voltage leading to 15% channel activation): HEK293 cells, IWB, 10-point concentration-response
T1 construct: expressed in transfected cells; host or cells: HEK293
Protocol: (§1) Biological evaluation of the new analogs, including RL-81 as a positive standard was performed in the Eli Lilly Open Innovation Drug Discovery (OIDD) program (now discontinued; see https://openinnovation.lilly.com/dd/login.jsp). Ion channel agonistic potency was determined in a high-throughput assay using the automated electrophysiology IonWorks® Barracuda™ (IWB) platform (Molecular Devices, LLC) in HEK293 cells. The resulting 10-point concentration-response curves provide a measure of compound efficacy by determining the agonist concentration that doubles the conductance at the voltage leading to 15% channel activation (EC2x).
Since the primary interest was in optimizing central (Kv7.2/Kv7.3) over peripheral Kv7.4/Kv7.5) tissue activities, a selectivity index (SI) was calculated as the inverse ratio of the EC2x values for these two channel types: SI=EC2x(Kv7.4/Kv7.5)/EC2×(Kv7.2/Kv7.3) The higher the SI ratio, the better the selectivity of the agent for the Kv7.2/Kv7.3 channels.

[2] = target: T2, Kv7.3/Kv7.5 (Homo sapiens, UniProt O43525+Q9NR82); assay: Automated electrophysiology IonWorks Barracuda (IWB) agonist assay in HEK293 cells, Kv7.3/Kv7.5; assay type: cell-based
T2 construct: expressed in transfected cells; host or cells: HEK293
Protocol: as §1

[3] = target: T3, Kv7.4/Kv7.5 (Homo sapiens, UniProt P56696+Q9NR82); assay: Automated electrophysiology IonWorks Barracuda (IWB) agonist assay in HEK293 cells, Kv7.4/Kv7.5; assay type: cell-based
T3 construct: expressed in transfected cells; host or cells: HEK293
Protocol: as §1

[4] = tested on: all tested Kv7 channels; assay: Automated electrophysiology IonWorks Barracuda (IWB) agonist assay in HEK293 cells, all tested Kv7 channels; assay type: cell-based; details: for activity at all Kv7 channel types (in words): HEK293 cells, IWB
Protocol: as §1

[5] = target: T4, Kv7.4 (Homo sapiens, UniProt P56696); assay: Automated electrophysiology IonWorks Barracuda (IWB) agonist assay in HEK293 cells, Kv7.4; assay type: cell-based
T4 construct: expressed in transfected cells; host or cells: HEK293
Protocol: as §1

[6] = target: KCNQ2/3 (Homo sapiens, UniProt O43525+O43526); details: read-out: EC50 (KCNQ2/3 activator); cited from earlier work

Nc1c(NC(=O)OC2CC2)cc(F)c(NCc2ncc(C(F)(F)F)cc2F)c1F [RL-01, Cyclopropyl (2-amino-3,5-difluoro-4-(((3-fluoro-5-(trifluoromethyl)pyridin-2-yl)methyl)amino)phenyl)carbamate]
selectivity / potency of 2-pyridyl analogs (in words) [1]: either low selectivity or low potency

CCOC(=O)Nc1ccc(NCc2cccc(S(F)(F)(F)(F)F)c2)c(F)c1N [RL-02, Ethyl (2-amino-3-fluoro-4-((3-(pentafluoro-λ^6-sulfanyl)benzyl)amino)phenyl)carbamate]
selectivity index SI = EC2x(Kv7.4/Kv7.5)/EC2x(Kv7.2/Kv7.3) [1]: 1.8

Nc1c(F)c(NCc2ncc(C(F)(F)F)cc2F)cc(F)c1NC(=O)OC1CC1 [RL-12, Cyclopropyl (2-amino-3,6-difluoro-4-(((3-fluoro-5-(trifluoromethyl)pyridin-2-yl)methyl)amino)phenyl)carbamate]
agonist activity at Kv7.3/Kv7.5 (in words) [2]: lacked activity | agonist activity at Kv7.4/Kv7.5 (in words) [3]: lacked activity | agonist activity at other channels (in words) ([4]; channels other than Kv7.2/Kv7.3): no detectable agonist activity | selectivity index SI = EC2x(Kv7.4/Kv7.5)/EC2x(Kv7.2/Kv7.3) [1]: > 10 | agonist activity at Kv7.4 (in words) [5]: lacked activity

CCOC(=O)Nc1ccc(NCc2ccc(C(F)(F)F)cc2F)c(F)c1N [RL-18, Ethyl (2-amino-3-fluoro-4-((2-fluoro-4-(trifluoromethyl)benzyl)amino)phenyl)carbamate]
EC2x at Kv7.2/Kv7.3 (agonist concentration that doubles the conductance at the voltage leading to 15% channel activation) [1]: 0.18 ± 0.11 µM | selectivity index SI = EC2x(Kv7.4/Kv7.5)/EC2x(Kv7.2/Kv7.3) [1]: 1.7

CCOC(=O)Nc1ccc(NCc2ccc(C(F)(F)F)c(C#N)n2)c(F)c1N [RL-23, Ethyl (2-amino-4-(((6-cyano-5-(trifluoromethyl)pyridin-2-yl)methyl)amino)-3-fluorophenyl)carbamate]
selectivity / potency of 2-pyridyl analogs (in words) [1]: either low selectivity or low potency

CCOC(=O)Nc1ccc(NCc2ccc(C(F)(F)F)nc2)c(F)c1N [RL-24, Ethyl (2-amino-3-fluoro-4-(((6-(trifluoromethyl)pyridin-3-yl)methyl)amino)phenyl)carbamate]
potency compared to 2-pyridyl isomers RL-31 and RL-68 (in words) [1]: essentially equivalent potency | selectivity compared to 2-pyridyl isomers RL-31 and RL-68 (in words) [1]: slightly increased selectivity

CCOC(=O)Nc1ccc(NCc2ccc(C(F)(F)F)cn2)c(F)c1N [RL-31, Ethyl (2-amino-3-fluoro-4-(((5-(trifluoromethyl)pyridin-2-yl)methyl)amino)phenyl)carbamate]
selectivity / potency of 2-pyridyl analogs (in words) [1]: either low selectivity or low potency

CC(C)OC(=O)Nc1ccc(NCc2ccc(C(F)(F)F)cc2)c(F)c1N [RL-32, Isopropyl (2-amino-3-fluoro-4-((4-(trifluoromethyl)benzyl)amino)phenyl)carbamate]
EC2x at Kv7.4/Kv7.5 [3]: 4.98 µM | selectivity index SI = EC2x(Kv7.4/Kv7.5)/EC2x(Kv7.2/Kv7.3) [1]: 31 | potency at Kv7.2/Kv7.3 compared with RL-81 (more potent) ([1]; relative to RL-81): slightly increased the potency | SI improvement over RL-81 ([1]; versus SI=0.3 of RL-81): 100 ×

Nc1c(NC(=O)OC2CC2)cc(F)c(NCc2ccc(C(F)(F)F)cc2F)c1F [RL-36, Cyclopropyl (2-amino-3,5-difluoro-4-((2-fluoro-4-(trifluoromethyl)benzyl)amino)phenyl)carbamate]
agonist activity at Kv7.3/Kv7.5 (in words) [2]: lacked agonist activity | agonist activity at Kv7.4/Kv7.5 (in words) [3]: lacked agonist activity | selectivity index SI = EC2x(Kv7.4/Kv7.5)/EC2x(Kv7.2/Kv7.3) [1]: > 10 | agonist activity at Kv7.4 (in words) [5]: lacked agonist activity

Nc1c(F)c(NCc2ccc(C(F)(F)F)cc2F)cc(F)c1NC(=O)OC1CC1 [RL-46, Cyclopropyl (2-amino-3,6-difluoro-4-((2-fluoro-4-(trifluoromethyl)benzyl)amino)phenyl)carbamate]
activity at all Kv7 channel types (in words) [4]: moderately active | selectivity index SI = EC2x(Kv7.4/Kv7.5)/EC2x(Kv7.2/Kv7.3) [1]: > 7

Nc1c(F)c(NCc2ccc(C(F)(F)F)cc2F)c(F)c(F)c1NC(=O)OC1CC1 [RL-50, Cyclopropyl (2-amino-3,5,6-trifluoro-4-((2-fluoro-4-(trifluoromethyl)benzyl)amino)phenyl)carbamate]
activity at all Kv7 channel types (in words) [4]: lost all activity; also recorded: inactive

Nc1c(NC(=O)OC2CC2)ccc(NCc2ccc(C(F)(F)F)cc2)c1F [RL-56, Cyclopropyl (2-amino-3-fluoro-4-((4-(trifluoromethyl)benzyl)amino)phenyl)carbamate]
EC2x at Kv7.2/Kv7.3 (agonist concentration that doubles the conductance at the voltage leading to 15% channel activation) [1]: 0.11 ± 0.02 µM | selectivity index SI = EC2x(Kv7.4/Kv7.5)/EC2x(Kv7.2/Kv7.3) [1]: 2.5 | potency at Kv7.2/Kv7.3 compared with RL-81 (more potent) ([1]; relative to RL-81): ca. 3

Nc1c(NC(=O)OC2CC2)ccc(NCc2ccc(C(F)(F)F)nc2)c1F [RL-67, Cyclopropyl (2-amino-3-fluoro-4-(((6-(trifluoromethyl)pyridin-3-yl)methyl)amino)phenyl)carbamate]
potency compared to 2-pyridyl isomers RL-31 and RL-68 (in words) [1]: essentially equivalent potency | selectivity compared to 2-pyridyl isomers RL-31 and RL-68 (in words) [1]: slightly increased selectivity

Nc1c(NC(=O)OC2CC2)ccc(NCc2ccc(C(F)(F)F)cn2)c1F [RL-68, Cyclopropyl (2-amino-3-fluoro-4-(((5-(trifluoromethyl)pyridin-2-yl)methyl)amino)phenyl)carbamate]
selectivity / potency of 2-pyridyl analogs (in words) [1]: either low selectivity or low potency

CCOC(=O)Nc1cc(F)c(NCc2ccc(C(F)(F)F)cc2)cc1N [RL-72, Ethyl (2-amino-5-fluoro-4-((4-(trifluoromethyl)benzyl)amino)phenyl)carbamate]
EC2x at Kv7.3/Kv7.5 [2]: > 10 µM | EC2x at Kv7.4/Kv7.5 [3]: > 10 µM | EC2x at Kv7.2/Kv7.3 (agonist concentration that doubles the conductance at the voltage leading to 15% channel activation) [1]: 1.26 µM | selectivity index SI = EC2x(Kv7.4/Kv7.5)/EC2x(Kv7.2/Kv7.3) [1]: > 7 | reduction of potency (EC2x) at Kv7.2/Kv7.3 versus RL-81 ([1]; relative to RL-81): 5 fold | EC2x at Kv7.4 [5]: 4.65 µM

CCOC(=O)Nc1ccc(NCc2cccc(C(F)(F)F)c2)c(F)c1N [RL-73, Ethyl (2-amino-3-fluoro-4-((3-(trifluoromethyl)benzyl)amino)phenyl)carbamate]
selectivity index SI = EC2x(Kv7.4/Kv7.5)/EC2x(Kv7.2/Kv7.3) [1]: 4.7 | potency at Kv7.2/Kv7.3 compared with RL-81 (more potent) ([1]; relative to RL-81): twice as potent

CCOC(=O)Nc1cc(C(F)(F)F)c(NCc2ccc(C(F)(F)F)cc2)c(F)c1N [RL-073, Ethyl (2-amino-3-fluoro-5-(trifluoromethyl)-4-((4-(trifluoromethyl)benzyl)amino)phenyl)carbamate]
activity at all Kv7 channel types (in words) [4]: completely abrogated activity

CCOC(=O)Nc1ccc(NCc2ccc(C(F)(F)F)cc2)c(F)c1N [RL-81, Ethyl (2-amino-3-fluoro-4-((4-(trifluoromethyl)benzyl)amino)phenyl)carbamate]
EC2x at Kv7.3/Kv7.5 [2]: 0.29 µM | efficacy versus flupirtine (FP), times higher ([4]; at all tested Kv7 channels): 8-50 times | efficacy versus retigabine (RG), in words ([4]; at all tested Kv7 channels): comparable | selectivity index SI = EC2x(Kv7.4/Kv7.5)/EC2x(Kv7.2/Kv7.3) [1]: 0.3 | EC2x at Kv7.4 [5]: 0.10 µM | EC50 [6]: 260 nM

CCOC(=O)Nc1ccc(NCc2ccc(F)cc2)nc1N [flupirtine, reference compound]
selectivity index SI = EC2x(Kv7.4/Kv7.5)/EC2x(Kv7.2/Kv7.3) [1]: 1.8 | EC50 [6]: 2000 nM

CCOC(=O)Nc1ccc(NCc2ccc(F)cc2)cc1N [retigabine]
EC50 [6]: 330 nM
